Common to all, as to assay: NCI-60 cell line screen, 48 h
The test system of assay [1] is KM-20L2.
Assay [2] concerns HCT-116.
In assay [3] the test system is OVCAR-5.
Assay [4] concerns OVCAR-8.
In assay [5] the test system is Malme-3M.
For assay [6], the system named is UACC-257.
The subject of assay [7] is SK-MEL-28.
Assay [8] relates to LXFL 529.
Assay [9] concerns DMS-114.
In assay [10] the test system is HCC 2998.
Assay [11] deals with M19-MEL.
The test system of assay [12] is SNB-19.
Assay [13] concerns OVCAR-4.
In assay [14] the test system is EKVX.
In assay [15] the test system is COLO 205.
The subject of assay [16] is SF-295.
The test system of assay [17] is NCI-H226.
The subject of assay [18] is NCI-H460.
The test system of assay [19] is HL-60.

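Exposure lasted 48 hours, with cells grown in 96-well plates and compounds tested at five concentrations. Here, GI50 denotes the concentration required for 50% inhibition of growth.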 Activity calls are given as the source filed them. Cut-off read from the data, not from the text of the source: active = GI50 up to about 1.1 µM and inactive = higher. Some results are limits rather than exact numbers.

We go through eight compounds from ChEMBL document CHEMBL1201862, “PubChem BioAssay data set” (2004).

With `CCOC(=O)c1ccc(N2C(=O)/C(=C\OC)c3ccccc3C2=O)cc1`, the GI50 was 37 µM (inactive) in assay [1]; 34.6 µM (inactive) in assay [2]; 43.1 µM (inactive) in [3]; 20 µM (inactive) in assay [4]; 18.7 µM (inactive) in assay [5]; 38.5 µM (inactive) in assay [6]. The GI50 in assay [7] is 24.7 µM (inactive); in assay [8], 23.6 µM (inactive); in assay [9], 31.5 µM (inactive); in [10] it was 46.2 µM (inactive); in assay [11], 75.2 µM (inactive); in assay [12], 34 µM (inactive). The GI50 in assay [13] was 43.6 µM (inactive); in [14], > 100 µM (inactive); in assay [15], 94.4 µM (inactive); in assay [16], 33.4 µM (inactive); in assay [17], 54 µM (inactive).
Regarding `NC1c2ccccc2Nc2ccccc21`, the GI50 in assay [1] was 3.76 µM (inactive); in assay [2] it was 3.23 µM (inactive); in [3], 5.04 µM (inactive); in assay [18] it was 2.76 µM (inactive); in [4], 4.34 µM (inactive); in assay [5], 4.97 µM (inactive). The GI50 is 4.3 µM (inactive) in assay [19]; 5.21 µM (inactive) in [6]; 3.54 µM (inactive) in [7]; 4.94 µM (inactive) in [8]; 3.24 µM (inactive) in assay [9]; 6.46 µM (inactive) in assay [10]. Besides, the GI50 in [11] was 3.36 µM (inactive); in [12], 5.18 µM (inactive); in [14], 5.71 µM (inactive); in [15], 2.21 µM (inactive); in assay [16], 4.49 µM (inactive); in [17], 9.1 µM (inactive).
`C[C@]12CC[C@H](O)CC1=CC[C@@H]1C2CC[C@]2(C)Nc3c(cnn3-c3ccccc3)CC12` (stereo partly drawn): the GI50 in assay [1] was 1.38 µM (inactive); in assay [2] it was 3.01 µM (inactive); in assay [3] it was 3.96 µM (inactive); in [18], 2.72 µM (inactive); in assay [4], 6.87 µM (inactive); in assay [5], 4.35 µM (inactive). Moreover, the GI50 in assay [19] was 1.77 µM (inactive); in assay [6], 3.78 µM (inactive); in [7], 2.86 µM (inactive); in [8], 4.06 µM (inactive); in assay [9] it was 2.82 µM (inactive); in assay [10], 3.56 µM (inactive). The GI50 in assay [11] is 5.35 µM (inactive); in assay [13], 7.23 µM (inactive); in [14], 6.07 µM (inactive); in [16], 0.388 µM (active); in [17], 8.57 µM (inactive).
For the compound `CC1=N/C(=C\c2ccc([N+](=O)[O-])cc2)C(=O)O1`, the GI50 in [1], in assay [2], in assay [3], in [18], in [4] and in assay [5] was > 100 µM (inactive) in each case. In addition, the GI50 in [19], in assay [6], in assay [7], in [8], in assay [9] and in [10] was > 100 µM (inactive) throughout. Moreover, the GI50 in assay [11], in [12], in assay [13], in assay [14], in assay [15] and in assay [16] was > 100 µM (inactive) throughout.
For the compound `N#Cc1c2c(c(N=P(c3ccccc3)(c3ccccc3)c3ccccc3)n3c1nc1ccccc13)CCCC2`, the GI50 in assay [1] is 17.4 µM (inactive); in assay [2], 17.6 µM (inactive); in assay [18] it was 13.3 µM (inactive); in [4], 13 µM (inactive); in [5], 36 µM (inactive); in [19], 3.86 µM (inactive). For the same compound, the GI50 in assay [6] was 15.5 µM (inactive); in assay [7], 43.7 µM (inactive); in assay [8] it was 20.6 µM (inactive); in [9], 21.5 µM (inactive); in assay [10] it was 26.3 µM (inactive); in assay [11], 18 µM (inactive). Further, the GI50 in [12] was 11.9 µM (inactive); in [13], 23.4 µM (inactive); in assay [14], 20 µM (inactive); in [15] it was 11.5 µM (inactive); in [16], 12.8 µM (inactive); in [17], 3.68 µM (inactive).
Consider `COC(=O)N/N=C(\Cc1ccccc1)CN(C)C`, for which the GI50 in assay [1], in assay [2], in assay [3], in [18], in assay [4] and in assay [5] was > 100 µM (inactive) throughout. The GI50 in assay [19], in assay [6], in assay [7], in [8], in [9] and in [10] was > 100 µM (inactive) each time. Moreover, the GI50 in assay [11], in assay [14], in [15] and in [16] was > 100 µM (inactive) throughout.
In the case of `ClCCCN1CCCCC1CCl` (stereo not drawn), the GI50 in assay [1] was > 100 µM (inactive); in [2], > 100 µM (inactive); in [3], > 100 µM (inactive); in assay [18], 10.2 µM (inactive); in assay [4] it was > 100 µM (inactive); in assay [5], > 100 µM (inactive). Moreover, the GI50 in assay [19] was 52.7 µM (inactive); in [7] it was > 100 µM (inactive); in [8] it was > 100 µM (inactive); in [9] it was 83 µM (inactive); in assay [10] it was > 100 µM (inactive); in assay [11] it was > 100 µM (inactive). Also, the GI50 in assay [12] was > 100 µM (inactive); in assay [13] it was > 100 µM (inactive); in assay [15] it was > 100 µM (inactive); in assay [16], 70.1 µM (inactive).
Consider `CC(C)(C)CC(C)(C)c1cc2c(O)c(c1)Cc1cc(C(C)(C)CC(C)(C)C)cc(c1O)Cc1cc(C(C)(C)CC(C)(C)C)cc(c1O)Cc1cc(C(C)(C)CC(C)(C)C)cc(c1O)Cc1cc(C(C)(C)CC(C)(C)C)cc(c1O)Cc1cc(C(C)(C)CC(C)(C)C)cc(c1O)C2`, for which the GI50 in assay [1], in assay [2], in assay [3], in assay [18], in assay [4] and in [5] was > 100 µM (inactive) each time. Also, the GI50 in [19], in assay [6], in [7], in assay [8], in assay [9] and in assay [10] was > 100 µM (inactive) each time. The GI50 in [11], in [12], in assay [13], in assay [14], in assay [15] and in assay [16] was > 100 µM (inactive) each time.
